Measurements reported in patent US20140227326A1, “METHOD OF DELIVERING NASAL SPRAY” (priority 2004, published 2014).

Test: Pharmacokinetic testing of olopatadine 0.6% nasal spray in clinical trials (plasma level by HPLC)
Format: in vivo
Details: human subjects, formulation containing 0.6% olopatadine, two sprays/nostril twice per day, intranasal

CN(C)CC/C=C1/c2ccccc2COc2ccc(CC(=O)O)cc21 [olopatadine, Z-11-(3-dimethylaminopropylidene)-6,11-dihydrodibenz[b,e]oxepine-2-acetic acid]
time post-dose at which peak plasma concentration was measured: 0.5 to 2 h | peak plasma concentration of olopatadine (C.), observed range (plasma, high performance liquid chromatography): 14.4 to 35.3 ng/mL | peak plasma concentration of olopatadine (C.), mean (plasma, mean +/- spread): 23.3 ± 6.1 ng/mL
